The target in this assay is AMPK α1β1γ1 (Homo sapiens (Human), UniProt Q13131+Q9Y478). Kind of assay: in vitro AMPK activation assay (ADP Glo Luminescence Kinase test). The assay is classed as biochemical. Conditions: for Emax: maximal achievable activation in the tested concentration range, percent of control max (positive control without test substance = 100%), read-out: AMPK α1β1γ1 PoCmax; for EC50: recombinant human AMPK alpha1/beta1/gamma1, ADP-Glo luminescence read-out. On the procedure: Recombinant human AMPK (containing subunits alpha1, beta1 and gamma1) was obtained from a baculovirus expression system. The 3 subunits were expressed together, affinity-purified via a GST-tag fused to the alpha 1 subunit and deep-frozen in storage buffer (50 mM Tris-HCl pH 8, 300 mM NaCl, 1 mM TCEP and 10% glycerol) at −80° C. until use. The activity of the AMPK protein was determined using the ADP Glo® Luminescence Kinase test (Promega; V9103X). In this homogeneous test the amount of ADP formed by the kinase reaction is quantified by a luciferin-luciferase reaction using luminescence as read-out. The luminescence signal obtained correlates with the amount of ADP resulting from the kinase reaction and thus correlates with the activity of the protein kinase.
Sequence of AMPK α1β1γ1 (Q13131 whole entry, the tested form may be a part): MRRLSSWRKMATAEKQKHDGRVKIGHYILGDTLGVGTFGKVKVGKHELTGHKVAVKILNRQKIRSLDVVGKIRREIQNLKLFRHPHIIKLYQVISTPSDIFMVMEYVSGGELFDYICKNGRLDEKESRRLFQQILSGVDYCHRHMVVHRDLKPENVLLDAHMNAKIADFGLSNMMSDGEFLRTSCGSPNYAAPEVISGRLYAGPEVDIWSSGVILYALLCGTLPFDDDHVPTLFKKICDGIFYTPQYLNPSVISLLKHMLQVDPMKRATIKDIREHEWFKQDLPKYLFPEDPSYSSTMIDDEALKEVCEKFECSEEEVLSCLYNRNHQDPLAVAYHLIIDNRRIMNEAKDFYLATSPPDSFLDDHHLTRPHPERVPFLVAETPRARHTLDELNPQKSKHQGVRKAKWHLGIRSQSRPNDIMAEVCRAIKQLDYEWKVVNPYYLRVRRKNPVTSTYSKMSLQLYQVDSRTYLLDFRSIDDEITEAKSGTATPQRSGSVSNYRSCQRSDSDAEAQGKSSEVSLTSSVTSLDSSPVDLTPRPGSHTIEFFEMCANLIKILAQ
Sequence of AMPK α1β1γ1 (Q9Y478 whole entry, the tested form may be a part): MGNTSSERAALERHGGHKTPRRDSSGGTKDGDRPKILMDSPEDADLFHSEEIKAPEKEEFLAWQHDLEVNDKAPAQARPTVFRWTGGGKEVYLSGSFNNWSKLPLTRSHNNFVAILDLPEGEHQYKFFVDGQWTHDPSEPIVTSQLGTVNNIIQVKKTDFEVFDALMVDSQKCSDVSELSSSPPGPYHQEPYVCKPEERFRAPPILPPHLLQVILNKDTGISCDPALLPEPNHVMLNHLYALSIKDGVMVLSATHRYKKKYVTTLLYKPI
Sequence of AMPK α1β1γ1 (P54619 whole entry partner, the tested form may be a part): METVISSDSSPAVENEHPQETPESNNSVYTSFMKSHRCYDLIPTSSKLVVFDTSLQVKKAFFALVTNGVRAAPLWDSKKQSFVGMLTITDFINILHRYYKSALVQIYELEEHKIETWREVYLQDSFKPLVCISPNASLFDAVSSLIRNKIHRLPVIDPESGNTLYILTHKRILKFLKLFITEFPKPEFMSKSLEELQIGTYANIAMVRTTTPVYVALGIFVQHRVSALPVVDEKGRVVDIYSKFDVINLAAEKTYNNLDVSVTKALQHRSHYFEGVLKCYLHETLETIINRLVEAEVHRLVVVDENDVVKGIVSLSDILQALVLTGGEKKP
The test compounds were dissolved in 100% DMSO at a concentration of 10 mM and in a first step diluted in DMSO to a concentration of 5 mM, followed by serial dilution steps in 100% DMSO. Dilution factor and number of dilution steps may vary. Typically 8 different concentrations by 1:5 dilutions were prepared, further dilutions of the substances were carried out with test buffer (20 mM Hepes (pH 7.0), 15 mM MgCl2, 0.025% BSA, 0.01% Brij 35) until a concentration was reached which was 5 times above the final test concentration. 2 μl aliquots of these dilutions were transferred into a 384-well Optiplate (Perkin Elmer, #6007290). Typically the start concentration for serial dilutions in the assay is 10 μM. Typically AMPK was diluted to 25 μg/ml in the test buffer and 4 μl of this dilution were used in the kinase test (final concentration of AMPK is 10 μg/ml in a total volume of 10 μl for the kinase reaction). Kinase concentrations may vary depending on activity of the preparation batches. After 10 minutes incubation at room temperature 4 μl of a mix containing 2.5 μM substrate (H-His-Met-Arg-Ser-Ala-Met-Ser-Gly-Leu-His-Leu-Val-Lys-Arg-Arg-OH Trifluoroacetate salt/HMRSAMSGLHLVKRR from Bachem, Cat. No. H5938) and 75 μM ATP in test buffer were added to each well and the incubation was continued for 60 minutes at room temperature.
Positive controls are the reaction mixtures that contain no test substance; negative controls (blanks) are reaction mixtures that contain no AMPK enzyme.
After 60 minutes, 10 μl ADP-Glo® solution (ADP-Glo Reagent #V912B Promega) (heated to room temperature) were added to each well and incubation was continued for 40 minutes. Then 20 μl Kinase detection mix (Detection Buffer #V913B Promega; Kinase Detection Substrate #V914B Promega) were added and incubated for additional 40 minutes at room temperature.
All incubations were done in sealed plates in the dark.
The plates were read with an Envision Luminescence Reader (Perkin-Elmer).
Data Evaluation and Calculation:
The output file of the reader is a csv file that contains the well number and measured RLU. For data evaluation and calculation, the measurement of the negative control was set as 0% control and the measurement of the positive control was set as 100% control. Based on these values the % value for the measurement of each substance concentration was calculated using Assay Explorer software (Accelrys). Activating compounds achieve % of control values above 100%. The IC50 values were calculated from the % control values using Assay Explorer software. Calculation: [y=(a−d)/(1+(x/c)^b)+d], a=low value, d=high value; x=conc M; c=IC50 M; b=hill; y=% ctrl. The maximal achievable activation of a compound in the tested concentration range is reported as percent of control max (PoCmax).
(In general: ADP-Glo first removes unused ATP, then detects ADP through luciferase.)

SMILES strings stand for the structures.

In general, EC50 refers to the concentration needed to bring the measured effect to its halfway point.

As to `CS(C)(=O)=Nc1ccc(-c2ccc(-c3nc4[nH]c(O[C@@H]5CO[C@H]6[C@@H]5OC[C@H]6O)nc4cc3Cl)cc2)cc1F` [Example 1, ({4-[4-(2-{[(3R,3aR,6R,6aR)-6-Hydroxy-hexahydrofuro[3,2-b]furan-3-yl]oxy}-6-chloro-3H-imidazo[4,5-b]pyridin-5-yl)phenyl]-2-fluorophenyl}imino)dimethyl-λ^6-sulfanone], the Emax is 540% and the concentration giving a half-maximal response (EC50) was found to be 0.284 µM.
Turning to `CS(C)(=O)=Nc1cc(F)c(-c2ccc(-c3nc4[nH]c(O[C@@H]5CO[C@H]6[C@@H]5OC[C@H]6O)nc4cc3Cl)cc2)c(F)c1` [Example 2, ({4-[4-(2-{[(3R,3aR,6R,6aR)-6-Hydroxy-hexahydrofuro[3,2-b]furan-3-yl]oxy}-6-chloro-3H-imidazo[4,5-b]pyridin-5-yl)phenyl]-3,5-difluorophenyl}imino)dimethyl-λ^6-sulfanone], the Emax amounted to 496% and the EC50 was 0.115 µM.
Taken in the same sequence, the figures for `CS(C)(=O)=Nc1cc(F)c(-c2ccc(-c3nc4[nH]c(O[C@@H]5CO[C@H]6[C@@H]5OC[C@H]6O)nc4cc3Cl)cc2)cc1F` [Example 3, ({4-[4-(2-{[(3R,3aR,6R,6aR)-6-Hydroxy-hexahydrofuro[3,2-b]furan-3-yl]oxy}-6-chloro-3H-imidazo[4,5-b]pyridin-5-yl)phenyl]-2,5-difluorophenyl}imino)dimethyl-λ^6-sulfanone] were 480% and 0.302 µM.
The corresponding values for `CS(C)(=O)=Nc1c(F)cc(-c2ccc(-c3nc4[nH]c(O[C@@H]5CO[C@H]6[C@@H]5OC[C@H]6O)nc4cc3Cl)cc2)cc1F` [Example 4, ({4-[4-(2-{[(3R,3aR,6R,6aR)-6-Hydroxy-hexahydrofuro[3,2-b]furan-3-yl]oxy}-6-chloro-3H-imidazo[4,5-b]pyridin-5-yl)phenyl]-2,6-difluorophenyl}imino)dimethyl-λ^6-sulfanone] are 421% and 3.56 µM.
On to `CS(C)(=O)=Nc1ccc(-c2ccc(-c3nc4[nH]c(O[C@@H]5CO[C@H]6[C@@H]5OC[C@H]6O)nc4cc3Cl)cc2)c(F)c1` [Example 5, ({4-[4-(2-{[(3R,3aR,6R,6aR)-6-Hydroxy-hexahydrofuro[3,2-b]furan-3-yl]oxy}-6-chloro-3H-imidazo[4,5-b]pyridin-5-yl)phenyl]-3-fluorophenyl}imino)dimethyl-λ^6-sulfanone], for which the Emax stood at 538% and the EC50 amounted to 0.06 µM.
The corresponding values for `CS(C)(=O)=Nc1ccc(-c2ccc(-c3nc4[nH]c(O[C@@H]5CO[C@H]6[C@@H]5OC[C@H]6O)nc4cc3Cl)cc2)c(F)c1F` [Example 6, ({4-[4-(2-{[(3R,3aR,6R,6aR)-6-Hydroxy-hexahydrofuro[3,2-b]furan-3-yl]oxy}-6-chloro-3H-imidazo[4,5-b]pyridin-5-yl)phenyl]-2,3-difluorophenyl}imino)dimethyl-λ^6-sulfanone] are 490% and 0.45 µM.
`CS(C)(=O)=Nc1ccc(-c2ccc(-c3nc4[nH]c(O[C@@H]5CO[C@H]6[C@@H]5OC[C@H]6O)nc4cc3Cl)c(F)c2)cc1` [Example 7, ({4-[4-(2-{[(3R,3aR,6R,6aR)-6-Hydroxy-hexahydrofuro[3,2-b]furan-3-yl]oxy}-6-chloro-3H-imidazo[4,5-b]pyridin-5-yl)-3-fluorophenyl]phenyl}imino)dimethyl-λ^6-sulfanone]: the Emax was 640% and the EC50 was 0.125 µM.
The corresponding values for `CS(C)(=O)=Nc1ccc(-c2ccc(-c3nc4[nH]c(O[C@@H]5CO[C@H]6[C@@H]5OC[C@H]6O)nc4cc3Cl)cc2F)cc1` [Example 8, ({4-[4-(2-{[(3R,3aR,6R,6aR)-6-Hydroxy-hexahydrofuro[3,2-b]furan-3-yl]oxy}-6-chloro-3H-imidazo[4,5-b]pyridin-5-yl)-2-fluorophenyl]phenyl}imino)dimethyl-λ^6-sulfanone] are 659% and 0.255 µM.
Taken in the same sequence, the figures for `CS(C)(=O)=Nc1ccc(-c2ccc(-c3nc4[nH]c(O[C@@H]5CO[C@H]6[C@@H]5OC[C@H]6O)nc4cc3Cl)c(F)c2F)cc1` [Example 9, ({4-[4-(2-{[(3R,3aR,6R,6aR)-6-Hydroxy-hexahydrofuro[3,2-b]furan-3-yl]oxy}-6-chloro-3H-imidazo[4,5-b]pyridin-5-yl)-2,3-difluorophenyl]phenyl}imino)dimethyl-λ^6-sulfanone] were 700% and 0.282 µM.
In the case of `CS(C)(=O)=Nc1cnc(-c2ccc(-c3nc4[nH]c(O[C@@H]5CO[C@H]6[C@@H]5OC[C@H]6O)nc4cc3Cl)cc2)c(F)c1` [Example 10, ({6-[4-(2-{[(3R,3aR,6R,6aR)-6-Hydroxy-hexahydrofuro[3,2-b]furan-3-yl]oxy}-6-chloro-3H-imidazo[4,5-b]pyridin-5-yl)phenyl]-5-fluoropyridin-3-yl}imino)dimethyl-λ^6-sulfanone], the Emax worked out at 479% and the EC50 stood at 0.193 µM.
Taken in the same sequence, the figures for `COc1nc(-c2ccc(N=S(C)(C)=O)cc2)ccc1-c1nc2[nH]c(O[C@@H]3CO[C@H]4[C@@H]3OC[C@H]4O)nc2cc1Cl` [Example 11, ({4-[5-(2-{[(3R,3aR,6R,6aR)-6-Hydroxy-hexahydrofuro[3,2-b]furan-3-yl]oxy}-6-chloro-3H-imidazo[4,5-b]pyridin-5-yl)-6-methoxypyridin-2-yl]phenyl}imino)dimethyl-λ^6-sulfanone] were 423% and 1.2 µM.
Consider `CS(C)(=O)=Nc1ccc(-c2ccc(-c3nc4nc(O[C@@H]5CO[C@H]6[C@@H]5OC[C@H]6O)[nH]c4cc3F)cc2)cc1` [Example 12, ({4-[4-(2-{[(3R,3aR,6R,6aR)-6-Hydroxy-hexahydrofuro[3,2-b]furan-3-yl]oxy}-6-fluoro-1H-imidazo[4,5-b]pyridin-5-yl)phenyl]phenyl}imino)dimethyl-λ^6-sulfanone], for which the Emax is 608% and the 50% effective concentration (EC50) is 0.109 µM.
For `CS(=N)(=O)c1ccc(-c2ccc(-c3nc4[nH]c(O[C@@H]5CO[C@H]6[C@@H]5OC[C@H]6O)nc4cc3Cl)cc2)c(F)c1` (stereo partly drawn) [Example 13, {4-[4-(2-{[(3R,3aR,6R,6aR)-6-Hydroxy-hexahydrofuro[3,2-b]furan-3-yl]oxy}-6-chloro-3H-imidazo[4,5-b]pyridin-5-yl)phenyl]-3-fluorophenyl}(imino)methyl-λ^6-sulfanone], the Emax turned out to be 523%.
With `CS(C)(=O)=Nc1ccc(-c2ccc(-c3nc4nc(O[C@@H]5CO[C@H]6[C@@H]5OC[C@H]6O)[nH]c4cc3F)cc2)c(F)c1` [Example 14, ({4-[4-(2-{[(3R,3aR,6R,6aR)-6-Hydroxy-hexahydrofuro[3,2-b]furan-3-yl]oxy}-6-fluoro-1H-imidazo[4,5-b]pyridin-5-yl)phenyl]-3-fluorophenyl}imino)dimethyl-λ^6-sulfanone], the Emax is 484% and the EC50 came out at 0.068 µM.
The corresponding values for `COc1nc(-c2ccc(N=S(C)(C)=O)cc2F)ccc1-c1nc2[nH]c(O[C@@H]3CO[C@H]4[C@@H]3OC[C@H]4O)nc2cc1Cl` [Example 15, ({4-[5-(2-{[(3R,3aR,6R,6aR)-6-Hydroxy-hexahydrofuro[3,2-b]furan-3-yl]oxy}-6-chloro-3H-imidazo[4,5-b]pyridin-5-yl)-6-methoxypyridin-2-yl]-3-fluorophenyl}imino)dimethyl-λ^6-sulfanone] are 426% and 0.344 µM.

These data come from patent publication US10053471B2, “Azabenzimidazole derivatives” (Boehringer Ingelheim International GmbH, priority 2015, dated 2018).
